Data reported in ChEMBL document CHEMBL1201862, “PubChem BioAssay data set” (2004).
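Five concentrations, 48 hours, 96-well plates. GI50 is the concentration that inhibits growth by half.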 Activity calls are given as the source filed them. No stated cut-off is given here; in the data, active = GI50 up to about 1.1 µM and inactive = higher.

Tests used:
Assay in all cases: DTP human tumour cell line panel, 48 h
SK-MEL-28 = test system: SK-MEL-28
HL-60 = test system: HL-60
MDA-MB-231 = test system: MDA-MB-231
Hs-578T = test system: Hs-578T
SNB-75 = test system: SNB-75
MOLT-4 = test system: MOLT-4
OVCAR-5 = test system: OVCAR-5
LOX IMVI = test system: LOX IMVI
HOP-92 = test system: HOP-92
786-0 = test system: 786-0
A498 = test system: A498
HCT-116 = test system: HCT-116
KM12 = test system: KM12
OVCAR-8 = test system: OVCAR-8
COLO 205 = test system: COLO 205
PC-3 = test system: PC-3
U-251 = test system: U-251
NCI-H460 = test system: NCI-H460
T47D = test system: T47D
UACC-257 = test system: UACC-257
SK-OV-3 = test system: SK-OV-3
NCI-H23 = test system: NCI-H23
IGROV-1 = test system: IGROV-1
CAKI-1 = test system: CAKI-1
SN12C = test system: SN12C
OVCAR-3 = test system: OVCAR-3
HCT-15 = test system: HCT-15
NCI-H522 = test system: NCI-H522
HCC 2998 = test system: HCC 2998
MDA-N = test system: MDA-N
A549 = test system: A549
M14 = test system: M14
NCI-H226 = test system: NCI-H226
K562 = test system: K562
UACC-62 = test system: UACC-62
RXF 393 = test system: RXF 393
HT-29 = test system: HT-29
SR = test system: SR
MCF7 = test system: MCF7
EKVX = test system: EKVX
NCI/ADR-RES = test system: NCI/ADR-RES
RPMI-8226 = test system: RPMI-8226
UO-31 = test system: UO-31
SNB-19 = test system: SNB-19
SW-620 = test system: SW-620
TK-10 = test system: TK-10
MDA-MB-435 = test system: MDA-MB-435
SF-539 = test system: SF-539
SK-MEL-2 = test system: SK-MEL-2
OVCAR-4 = test system: OVCAR-4
SF-268 = test system: SF-268
SK-MEL-5 = test system: SK-MEL-5
DU-145 = test system: DU-145
Malme-3M = test system: Malme-3M
BT-549 = test system: BT-549
HOP-62 = test system: HOP-62
CCRF-CEM = test system: CCRF-CEM
ACHN = test system: ACHN
SF-295 = test system: SF-295

SMILES: CSc1c(C#N)c(N)n(-c2ccc(Cl)cc2)c(=O)c1C#N
- GI50 (SK-MEL-28): > 100 µM (inactive)
- GI50 (HL-60): 46.3 µM (inactive)
- GI50 (MDA-MB-231): > 100 µM (inactive)
- GI50 (Hs-578T): > 100 µM (inactive)
- GI50 (SNB-75): 78 µM (inactive)
- GI50 (MOLT-4): 61.4 µM (inactive)
- GI50 (OVCAR-5): > 100 µM (inactive)
- GI50 (LOX IMVI): > 100 µM (inactive)
- GI50 (HOP-92): 21 µM (inactive)
- GI50 (786-0): > 100 µM (inactive)
- GI50 (A498): > 100 µM (inactive)
- GI50 (HCT-116): > 100 µM (inactive)
- GI50 (KM12): > 100 µM (inactive)
- GI50 (OVCAR-8): 67.8 µM (inactive)
- GI50 (COLO 205): > 100 µM (inactive)
- GI50 (PC-3): > 100 µM (inactive)
- GI50 (U-251): > 100 µM (inactive)
- GI50 (NCI-H460): > 100 µM (inactive)
- GI50 (T47D): > 100 µM (inactive)
- GI50 (UACC-257): > 100 µM (inactive)
- GI50 (SK-OV-3): > 100 µM (inactive)
- GI50 (NCI-H23): > 100 µM (inactive)
- GI50 (IGROV-1): > 100 µM (inactive)
- GI50 (CAKI-1): > 100 µM (inactive)
- GI50 (SN12C): > 100 µM (inactive)
- GI50 (OVCAR-3): > 100 µM (inactive)
- GI50 (HCT-15): > 100 µM
- GI50 (NCI-H522): 27.5 µM (inactive)
- GI50 (HCC 2998): > 100 µM (inactive)
- GI50 (MDA-N): > 100 µM (inactive)
- GI50 (A549): > 100 µM (inactive)
- GI50 (M14): > 100 µM (inactive)
- GI50 (NCI-H226): 59.7 µM (inactive)
- GI50 (K562): > 100 µM (inactive)
- GI50 (UACC-62): > 100 µM (inactive)
- GI50 (RXF 393): > 100 µM (inactive)
- GI50 (HT-29): > 100 µM (inactive)
- GI50 (SR): 42.8 µM (inactive)
- GI50 (MCF7): > 100 µM (inactive)
- GI50 (EKVX): > 100 µM (inactive)
- GI50 (NCI/ADR-RES): > 100 µM (inactive)
- GI50 (RPMI-8226): > 100 µM (inactive)
- GI50 (UO-31): > 100 µM (inactive)
- GI50 (SNB-19): > 100 µM (inactive)
- GI50 (SW-620): > 100 µM (inactive)
- GI50 (TK-10): > 100 µM (inactive)
- GI50 (MDA-MB-435): > 100 µM (inactive)
- GI50 (SF-539): > 100 µM (inactive)
- GI50 (SK-MEL-2): > 100 µM (inactive)
- GI50 (OVCAR-4): > 100 µM (inactive)
- GI50 (SF-268): > 100 µM (inactive)
- GI50 (SK-MEL-5): > 100 µM (inactive)
- GI50 (DU-145): > 100 µM (inactive)
- GI50 (Malme-3M): > 100 µM (inactive)
- GI50 (BT-549): > 100 µM (inactive)

SMILES: CCC(Nc1ncnc2nc[nH]c12)C(=O)O (configuration not stated)
- GI50 (SK-MEL-28): > 100 µM (inactive)
- GI50 (HL-60): > 100 µM (inactive)
- GI50 (MDA-MB-231): > 100 µM (inactive)
- GI50 (Hs-578T): > 100 µM (inactive)
- GI50 (SNB-75): 26.2 µM (inactive)
- GI50 (HOP-62): > 100 µM (inactive)
- GI50 (OVCAR-5): > 100 µM (inactive)
- GI50 (CCRF-CEM): > 100 µM (inactive)
- GI50 (LOX IMVI): > 100 µM (inactive)
- GI50 (HOP-92): > 100 µM (inactive)
- GI50 (786-0): > 100 µM (inactive)
- GI50 (A498): > 100 µM (inactive)
- GI50 (HCT-116): > 100 µM (inactive)
- GI50 (KM12): > 100 µM (inactive)
- GI50 (OVCAR-8): > 100 µM (inactive)
- GI50 (COLO 205): > 100 µM (inactive)
- GI50 (PC-3): > 100 µM (inactive)
- GI50 (U-251): > 100 µM (inactive)
- GI50 (NCI-H460): > 100 µM (inactive)
- GI50 (T47D): > 100 µM (inactive)
- GI50 (UACC-257): > 100 µM (inactive)
- GI50 (SK-OV-3): > 100 µM (inactive)
- GI50 (NCI-H23): > 100 µM (inactive)
- GI50 (IGROV-1): > 100 µM (inactive)
- GI50 (CAKI-1): > 100 µM (inactive)
- GI50 (SN12C): > 100 µM (inactive)
- GI50 (OVCAR-3): > 100 µM (inactive)
- GI50 (HCT-15): > 100 µM
- GI50 (NCI-H522): > 100 µM (inactive)
- GI50 (HCC 2998): > 100 µM (inactive)
- GI50 (MDA-N): > 100 µM (inactive)
- GI50 (A549): > 100 µM (inactive)
- GI50 (M14): > 100 µM (inactive)
- GI50 (NCI-H226): > 100 µM (inactive)
- GI50 (K562): > 100 µM (inactive)
- GI50 (UACC-62): > 100 µM (inactive)
- GI50 (RXF 393): > 100 µM (inactive)
- GI50 (HT-29): > 100 µM (inactive)
- GI50 (SR): > 100 µM (inactive)
- GI50 (MCF7): > 100 µM (inactive)
- GI50 (EKVX): > 100 µM (inactive)
- GI50 (NCI/ADR-RES): > 100 µM (inactive)
- GI50 (RPMI-8226): > 100 µM (inactive)
- GI50 (UO-31): > 100 µM (inactive)
- GI50 (SNB-19): > 100 µM (inactive)
- GI50 (SW-620): > 100 µM (inactive)
- GI50 (ACHN): > 100 µM (inactive)
- GI50 (TK-10): > 100 µM (inactive)
- GI50 (MDA-MB-435): > 100 µM (inactive)
- GI50 (SK-MEL-2): > 100 µM (inactive)
- GI50 (SF-295): > 100 µM (inactive)
- GI50 (OVCAR-4): > 100 µM (inactive)
- GI50 (SF-268): > 100 µM (inactive)
- GI50 (SK-MEL-5): > 100 µM (inactive)
- GI50 (DU-145): > 100 µM (inactive)
- GI50 (Malme-3M): > 100 µM (inactive)
- GI50 (BT-549): > 100 µM (inactive)
